Test results taken from ChEMBL document CHEMBL1681651, “A broad spectrum anticancer nucleoside with selective toxicity against human colon cells in vitro” (2011).

Experiments:
Type in all cases: functional
HL-60(TB) [1] = experiment: Growth inhibition of human HL-60(TB) cells after 48 hrs by […] growth inhibition assay; conditions: HL-60, 48 h
T47D [2] = experiment: Growth inhibition of human T47D cells assessed as cell growth at 10 uM after 48 hrs by SRB assay; conditions: read-out: Activity
K562 [3] = experiment: Growth inhibition of human K562 cells assessed as cell growth at 0.1 uM after 48 hrs by SRB assay; conditions: K562, 48 h, read-out: Activity
HL-60(TB) [4] = experiment: Growth inhibition of human HL-60(TB) cells assessed as cell growth at 0.1 uM after 48 hrs by SRB assay; conditions: HL-60, 48 h, read-out: Activity
MOLT-4 [5] = experiment: Growth inhibition of human MOLT4 cells assessed as cell growth at 0.1 uM after 48 hrs by SRB assay; conditions: MOLT-4, 48 h, read-out: Activity
CAKI-1 = experiment: Growth inhibition of human Caki1 cells after 48 hrs by […] growth inhibition assay; conditions: CAKI-1, 48 h
MDA-MB-435 = experiment: Growth inhibition of human MDA-MB-435 cells assessed as cell growth at 10 uM after 48 hrs by SRB assay; conditions: MDA-MB-435, 48 h, read-out: Activity
SNB-19 = experiment: Growth inhibition of human SNB19 cells assessed as cell growth at 10 uM after 48 hrs by SRB assay; conditions: SNB-19, 48 h, read-out: Activity
MOLT-4 [6] = experiment: Growth inhibition of human MOLT4 cells assessed as cell growth at 1 uM after 48 hrs by SRB assay; conditions: MOLT-4, 48 h, read-out: Activity
SR [7] = experiment: Growth inhibition of human SR cells assessed as cell growth at 100 uM after 48 hrs by SRB assay; conditions: read-out: Activity
SW-620 [8] = experiment: Growth inhibition of human SW620 cells assessed as cell growth at 1 mM after 48 hrs by SRB assay; conditions: SW-620, 48 h, read-out: Activity
[9] = Growth inhibition of human Hs 578T cells after 48 hrs by […] growth inhibition assay
EKVX = experiment: Growth inhibition of human EKVX cells assessed as cell growth at 1 mM after 48 hrs by SRB assay; conditions: read-out: Activity
M14 = experiment: Growth inhibition of human M14 cells after 48 hrs by […] growth inhibition assay; conditions: M14, 48 h
Malme-3M = experiment: Growth inhibition of human MALME-3M cells assessed as cell growth at 0.1 uM after 48 hrs by SRB assay; conditions: read-out: Activity
PC-3 [10] = experiment: Growth inhibition of human PC3 cells assessed as cell growth at 1 mM after 48 hrs by SRB assay; conditions: PC-3, 48 h, read-out: Activity
RXF 393 = experiment: Growth inhibition of human RXF393 cells assessed as cell growth at 0.1 uM after 48 hrs by SRB assay; conditions: RXF 393, 48 h, read-out: Activity
[11] = Growth inhibition of human […] cells assessed as cell growth at 1 mM after 48 hrs by SRB assay; conditions: read-out: Activity
T47D [12] = experiment: Growth inhibition of human T47D cells assessed as cell growth at 100 uM after 48 hrs by SRB assay; conditions: read-out: Activity
[13] = Growth inhibition of human Hs 578T cells assessed as cell growth at 1 uM after 48 hrs by SRB assay; conditions: read-out: Activity
MCF7 = experiment: Growth inhibition of human MCF7 cells assessed as cell growth at 1 mM after 48 hrs by SRB assay; conditions: Homo sapiens, MCF7, 48 h; read-out: Activity
SW-620 [14] = experiment: Growth inhibition of human SW620 cells assessed as cell growth at 1 uM after 48 hrs by SRB assay; conditions: SW-620, 48 h, read-out: Activity
PC-3 [15] = experiment: Growth inhibition of human PC3 cells assessed as cell growth at 100 uM after 48 hrs by SRB assay; conditions: PC-3, 48 h, read-out: Activity
DU-145 = experiment: Growth inhibition of human DU145 cells assessed as cell growth at 10 uM after 48 hrs by SRB assay; conditions: DU-145, 48 h, read-out: Activity
SR [16] = experiment: Growth inhibition of human SR cells after 48 hrs by SRB assay
K562 [17] = experiment: Growth inhibition of human K562 cells after 48 hrs by […] growth inhibition assay; conditions: K562, 48 h
SW-620 [18] = experiment: Growth inhibition of human SW620 cells assessed as cell growth at 0.1 uM after 48 hrs by SRB assay; conditions: SW-620, 48 h, read-out: Activity
K562 [19] = experiment: Growth inhibition of human K562 cells assessed as cell growth at 100 uM after 48 hrs by SRB assay; conditions: K562, 48 h, read-out: Activity
SK-MEL-28 [20] = experiment: Growth inhibition of human SK-MEL-28 cells assessed as cell growth at 100 uM after 48 hrs by SRB assay; conditions: SK-MEL-28, 48 h, read-out: Activity
PC-3 [21] = experiment: Growth inhibition of human PC3 cells assessed as cell growth at 0.1 uM after 48 hrs by SRB assay; conditions: PC-3, 48 h, read-out: Activity
MOLT-4 [22] = experiment: Growth inhibition of human MOLT4 cells assessed as cell growth at 1 mM after 48 hrs by SRB assay; conditions: MOLT-4, 48 h, read-out: Activity
SK-MEL-28 [23] = experiment: Growth inhibition of human SK-MEL-28 cells assessed as cell growth at 1 mM after 48 hrs by SRB assay; conditions: SK-MEL-28, 48 h, read-out: Activity
SW-620 [24] = experiment: Growth inhibition of human SW620 cells assessed as cell growth at 100 uM after 48 hrs by SRB assay; conditions: SW-620, 48 h, read-out: Activity
MOLT-4 [25] = experiment: Growth inhibition of human MOLT4 cells after 48 hrs by […] growth inhibition assay; conditions: MOLT-4, 48 h
SK-MEL-28 [26] = experiment: Growth inhibition of human SK-MEL-28 cells assessed as cell growth at 0.1 uM after 48 hrs by SRB assay; conditions: SK-MEL-28, 48 h, read-out: Activity
[27] = read-out: LC50 (the source's name)
[28] = read-out: pLC50 (the source's name) (converted)

SMILES: CCOC(=O)C[C@H]1[C@@H](O[Si](C)(C)C(C)(C)C)[C@H](n2cnc3c(NC(=O)Nc4ccccc4)ncnc32)O[C@@H]1CNC(=O)NC
- GI50 (HL-60(TB) [1]; read-out: GI50): 3.01 µM
- CC50 (HL-60(TB) [1]; [27]): > 100 µM
- GI50 (HL-60(TB) [1]; read-out: pGI50 (converted)): 3.02 µM
- CC50 (HL-60(TB) [1]; [28]): > 100 µM
- growth at 10 µM (T47D [2]): 73%
- growth at 0.1 µM (K562 [3]): 96%
- growth at 0.1 µM (HL-60(TB) [4]): 85%
- growth at 0.1 µM (MOLT-4 [5]): 93%
- GI50 (CAKI-1; read-out: GI50): 29.7 µM
- CC50 (CAKI-1; [27]): > 100 µM
- TGI (CAKI-1; read-out: TGI): > 100 µM
- GI50 (CAKI-1; read-out: pGI50 (converted)): 29.5 µM
- CC50 (CAKI-1; [28]): > 100 µM
- TGI (CAKI-1; read-out: pTGI (converted)): > 100 µM
- growth at 10 µM (MDA-MB-435): 89%
- growth at 10 µM (SNB-19): 87%
- growth at 1 µM (MOLT-4 [6]): 84%
- growth at 100 µM (SR [7]): -15%
- growth at 1000 µM (SW-620 [8]): -33%
- GI50 ([9]; read-out: GI50): 3.6 µM
- CC50 [9, 27]: > 100 µM
- TGI ([9]; read-out: TGI): 53.6 µM
- GI50 ([9]; read-out: pGI50 (converted)): 3.63 µM
- CC50 [9, 28]: > 100 µM
- TGI ([9]; read-out: pTGI (converted)): 53.7 µM
- growth at 1000 µM (EKVX): 42%
- GI50 (M14; read-out: GI50): 2.51 µM
- CC50 (M14; [27]): 78.6 µM
- TGI (M14; read-out: TGI): 11.6 µM
- GI50 (M14; read-out: pGI50 (converted)): 2.51 µM
- CC50 (M14; [28]): 79.4 µM
- TGI (M14; read-out: pTGI (converted)): 11.5 µM
- growth at 0.1 µM (Malme-3M): 104%
- growth at 1000 µM (PC-3 [10]): -77%
- growth at 0.1 µM (RXF 393): 99%
- growth at 1000 µM [11]: -57%
- growth at 100 µM (T47D [12]): 16%
- growth at 1 µM [13]: 95%
- growth at 1000 µM (MCF7): -8%
- growth at 1 µM (SW-620 [14]): 94%
- growth at 100 µM (PC-3 [15]): -47%
- growth at 10 µM (DU-145): 110%
- GI50 (SR [16]; read-out: GI50): 2.23 µM
- CC50 (SR [16]; [27]): > 100 µM
- TGI (SR [16]; read-out: TGI): 7.07 µM
- GI50 (SR [16]; read-out: pGI50 (converted)): 2.24 µM
- CC50 (SR [16]; [28]): > 100 µM
- TGI (SR [16]; read-out: pTGI (converted)): 7.08 µM
- GI50 (K562 [17]; read-out: GI50): 3.59 µM
- LC50 (concentration killing 50% of cells) (K562 [17]; read-out: LC50): > 100 µM
- TGI (K562 [17]; read-out: TGI): 32.9 µM
- GI50 (K562 [17]; read-out: pGI50 (converted)): 3.63 µM
- LC50 (concentration killing 50% of cells) (K562 [17]; read-out: pLC50 (converted)): > 100 µM
- TGI (K562 [17]; read-out: pTGI (converted)): 33.1 µM
- growth at 0.1 µM (SW-620 [18]): 97%
- growth at 100 µM (K562 [19]): 19%
- growth at 100 µM (SK-MEL-28 [20]): 40%
- growth at 0.1 µM (PC-3 [21]): 121%
- growth at 1000 µM (MOLT-4 [22]): -14%
- growth at 1000 µM (SK-MEL-28 [23]): -91%
- growth at 100 µM (SW-620 [24]): 28%
- GI50 (MOLT-4 [25]; read-out: GI50): 2.39 µM
- LC50 (MOLT-4 [25]; read-out: LC50): > 100 µM
- TGI (MOLT-4 [25]; read-out: TGI): 23.3 µM
- GI50 (MOLT-4 [25]; read-out: pGI50 (converted)): 2.4 µM
- LC50 (MOLT-4 [25]; read-out: pLC50 (converted)): > 100 µM
- TGI (MOLT-4 [25]; read-out: pTGI (converted)): 23.4 µM
- growth at 0.1 µM (SK-MEL-28 [26]): 104%
